Structures can show the parent of a compound that is named as a salt.
Key:
[1] = biological target: T1, HCV genotype 1b (BK) NS3 modified enzyme with a R155K mutation (Hepatitis C virus genotype 1b, UniProt P26663, R1181K); assay: HCV NS3 protease time-resolved fluorescence (TRF) assay, genotype 1b R155K; format: biochemical; conditions: Ki 1b R155K
T1 construct: HCV genotype 1b (BK) NS3 modified enzyme
Outline: (§1)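 Time-resolved fluorescence, ex 340/em 615 nm, 400 μs delay; IC50 by four-parameter fit. Enzyme preincubated with compound 10 min, then TRF substrate 25 nM final added and reaction run 6 h at RT. Buffer HEPES pH 7.5 with NaCl, glycerol, Triton X-100, DTT, PEG 8000.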

[2] = biological target: HCV NS3 protease genotype 3a (3A-1) (Hepatitis C virus genotype 3a, UniProt Q81258); assay: HCV NS3 protease time-resolved fluorescence (TRF) assay, genotype 3a; format: biochemical; conditions: Ki 3a
Outline: as §1

[3] = first of two values printed in the cell (not explained)
[4] = second of two values printed in the cell (not explained)

| Structure (SMILES) | Ki [1, 3] [pM] | Ki [1, 4] [pM] | Ki [2] [pM] |
| --- | --- | --- | --- |
| C=C[C@@H]1C[C@]1(NC(=O)[C@@H]1C[C@@H]2CN1C(=O)[C@H](C1(C)CCCCC1)NC(=O)O[C@@H]1C[C@H]1CCCCCc1c(nc3ccccc3c1OC1CCN(C(=O)OC(C)(C)C)CC1)O2)C(=O)NS(=O)(=O)C1(C)CC1 [Example 267, tert-butyl 4-{[(1aR,5S,8S,10R,22aR)-8-{[(1R,2S)-2-ethenyl-1-{[(1-methylcyclopropyl)sulfonyl]carbamoyl}cyclopropyl]carbamoyl}-5-(1-methylcyclohexyl)-3,6-dioxo-1,1a,3,4,5,6,9,10,18,19,20,21,22,22a-tetradecahydro-8H-7,10-methanocyclopropa[18,19][1,10,3,6]dioxadiazacyclononadecino[11,12-b]quinolin-17-yl]oxy}piperidine-1-carboxylate] | 114 | 4600 | 56000 |
| C=C[C@@H]1C[C@]1(NC(=O)[C@@H]1C[C@@H]2CN1C(=O)[C@H](C1(C)CCCCC1)NC(=O)O[C@@H]1C[C@H]1CCCCCc1c(nc3ccccc3c1OC1CCNCC1)O2)C(=O)NS(=O)(=O)C1(C)CC1 [Example 268, (1aR,5S,8S,10R,22aR)—N-[(1R,2S)-2-ethenyl-1-{[(1-methylcyclopropyl)sulfonyl]carbamoyl}cyclopropyl]-5-(1-methylcyclohexyl)-3,6-dioxo-17-(piperidin-4-yloxy)-1,1a,3,4,5,6,9,10,18,19,20,21,22,22a-tetradecahydro-8H-7,10-methanocyclopropa[18,19][1,10,3,6]dioxadiazacyclononadecino[11,12-b]quinoline-8-carboxamide] | 12 | 34 | 200 |
| C=C[C@@H]1C[C@]1(NC(=O)[C@@H]1C[C@@H]2CN1C(=O)[C@H](C1(C)CCCCC1)NC(=O)O[C@@H]1C[C@H]1CCCCCc1c(nc3ccccc3c1OCCCN1CCCOCC1)O2)C(=O)NS(=O)(=O)C1(C)CC1 [Example 270, (1aR,5S,8S,10R,22aR)—N-[(1R,2S)-2-ethenyl-1-{[(1-methylcyclopropyl)sulfonyl]carbamoyl}cyclopropyl]-5-(1-methylcyclohexyl)-17-[3-(1,4-oxazepan-4-yl)propoxy]-3,6-dioxo-1,1a,3,4,5,6,9,10,18,19,20,21,22,22a-tetradecahydro-8H-7,10-methanocyclopropa[18,19][1,10,3,6]dioxadiazacyclononadecino[11,12-b]quinoline-8-carboxamide] | 21 | 180 | 1400 |
| C=C[C@@H]1C[C@]1(NC(=O)[C@@H]1C[C@@H]2CN1C(=O)[C@H](C1CCCCC1)NC(=O)O[C@@H]1C[C@H]1CCCCCc1c(nc3ccccc3c1OC1CCN(CCS(C)(=O)=O)CC1)O2)C(=O)NS(=O)(=O)C1(C)CC1 [Example 271, (1aR,5S,8S,10R,22aR)-5-cyclohexyl-N-[(1R,2S)-2-ethenyl-1-{[(1-methylcyclopropyl)sulfonyl]carbamoyl}cyclopropyl]-17-({1-[2-(methylsulfonyl)ethyl]piperidin-4-yl}oxy)-3,6-dioxo-1,1a,3,4,5,6,9,10,18,19,20,21,22,22a-tetradecahydro-8H-7,10-methanocyclopropa[18,19][1,10,3,6]dioxadiazacyclononadecino[11,12-b]quinoline-8-carboxamide] | 23 | 215 | 5200 |
| C=C[C@@H]1C[C@]1(NC(=O)[C@@H]1C[C@@H]2CN1C(=O)[C@H](C1CCCCC1)NC(=O)O[C@@H]1C[C@H]1CCCCCc1c(nc3ccccc3c1OC1CCN(CCF)CC1)O2)C(=O)NS(=O)(=O)C1(C)CC1 [Example 272, 4-{[(1aR,5S,8S,10R,22aR)-5-cyclohexyl-8-{[(1R,2S)-2-ethenyl-1-{[(1-methylcyclopropyl)sulfonyl]carbamoyl}cyclopropyl]carbamoyl}-3,6-dioxo-1,1a,3,4,5,6,9,10,18,19,20,21,22,22a-tetradecahydro-8H-7,10-methanocyclopropa[18,19][1,10,3,6]dioxadiazacyclononadecino[11,12-b]quinolin-17-yl]oxy}-1-(2-fluoroethyl)piperidinium formate] | 15 | 128 | 2120 |
| C=C[C@@H]1C[C@]1(NC(=O)[C@@H]1C[C@@H]2CN1C(=O)[C@H](C(C)(C)C)NC(=O)O[C@@H]1C[C@H]1CCCCCc1c(nc3ccccc3c1OC1CC3CCC(C1)N3CC(F)(F)F)O2)C(=O)NS(=O)(=O)C1(C)CC1 (stereo partly drawn) [Example 275, potassium {[(1R,2S)-1-({[(1aR,5S,8S,10R,22aR)-5-tert-butyl-3,6-dioxo-17-{[8-(2,2,2-trifluoroethyl)-8-azabicyclo[3.2.1]oct-3-yl]oxy}-1,1a,3,4,5,6,9,10,18,19,20,21,22,22a-tetradecahydro-8H-7,10-methanocyclopropa[18,19][1,10,3,6]dioxadiazacyclononadecino[11,12-b]quinolin-8-yl]carbonyl}amino)-2-ethenylcyclopropyl]carbonyl}[(1-methylcyclopropyl)sulfonyl]azanide] | 110 | 1150 | 16000 |
| C=C[C@@H]1C[C@]1(NC(=O)[C@@H]1C[C@@H]2CN1C(=O)[C@H](C1CCCCC1)NC(=O)O[C@@H]1C[C@H]1CCCCCc1c(nc3ccccc3c1OC1CC3CCC(C1)N3C(=O)OC(C)(C)C)O2)C(=O)NS(=O)(=O)C1(C)CC1 (stereo partly drawn) [Example 282, tert-butyl 3-{[(1aR,5S,8S,10R,22aR)-5-cyclohexyl-8-{[(1R,2S)-2-ethenyl-1-{[(1-methylcyclopropyl)sulfonyl]carbamoyl}cyclopropyl]carbamoyl}-3,6-dioxo-1,1a,3,4,5,6,9,10,18,19,20,21,22,22a-tetradecahydro-8H-7,10-methanocyclopropa[18,19][1,10,3,6]dioxadiazacyclononadecino[11,12-b]quinolin-17-yl]oxy}-8-azabicyclo[3.2.1]octane-8-carboxylate] | 140 | 5300 | 140000 |
| C=C[C@@H]1C[C@]1(NC(=O)[C@@H]1C[C@@H]2CN1C(=O)[C@H](C1CCCCC1)NC(=O)O[C@@H]1C[C@H]1CCCCCc1c(nc3ccccc3c1OC1CC3CCC(C1)N3)O2)C(=O)NS(=O)(=O)C1(C)CC1 (stereo partly drawn) [Example 283, potassium {[(1R,2S)-1-({[(1aR,5S,8S,10R,22aR)-17-(8-azabicyclo[3.2.1]oct-3-yloxy)-5-cyclohexyl-3,6-dioxo-1,1a,3,4,5,6,9,10,18,19,20,21,22,22a-tetradecahydro-8H-7,10-methanocyclopropa[18,19][1,10,3,6]dioxadiazacyclononadecino[11,12-b]quinolin-8-yl]carbonyl}amino)-2-ethenylcyclopropyl]carbonyl}[(1-methylcyclopropyl)sulfonyl]azanide] | 14 | 22 | 108 |
| C=C[C@@H]1C[C@]1(NC(=O)[C@@H]1C[C@@H]2CN1C(=O)[C@H](C1CCCCC1)NC(=O)O[C@@H]1C[C@H]1CCCCCc1c(nc3ccccc3c1OC1CC3CCC(C1)N3CCOC)O2)C(=O)NS(=O)(=O)C1(C)CC1 (stereo partly drawn) [Example 284, (1aR,5S,8S,10R,22aR)-5-cyclohexyl-N-[(1R,2S)-2-ethenyl-1-{[(1-methylcyclopropyl)sulfonyl]carbamoyl}cyclopropyl]-17-{[8-(2-methoxyethyl)-8-azabicyclo[3.2.1]oct-3-yl]oxy}-3,6-dioxo-1,1a,3,4,5,6,9,10,18,19,20,21,22,22a-tetradecahydro-8H-7,10-methanocyclopropa[18,19][1,10,3,6]dioxadiazacyclononadecino[11,12-b]quinoline-8-carboxamide] | 23 | 53 | 280 |
| C=C[C@@H]1C[C@]1(NC(=O)[C@@H]1C[C@@H]2CN1C(=O)[C@H](C1CCCCC1)NC(=O)O[C@@H]1C[C@H]1CCCCCc1c(nc3c(F)cccc3c1OC1CCN(C)CC1)O2)C(=O)NS(=O)(=O)C1(C)CC1 [Example 286, (1aR,5S,8S,10R,22aR)-5-cyclohexyl-N-[(1R,2S)-2-ethenyl-1-{[(1-methylcyclopropyl)sulfonyl]carbamoyl}cyclopropyl]-13-fluoro-17-[(1-methylpiperidin-4-yl)oxy]-3,6-dioxo-1,1a,3,4,5,6,9,10,18,19,20,21,22,22a-tetradecahydro-8H-7,10-methanocyclopropa[18,19][1,10,3,6]dioxadiazacyclononadecino[11,12-b]quinoline-8-carboxamide] | 22 | 94 | 515 |
| C=C[C@@H]1C[C@]1(NC(=O)[C@@H]1C[C@@H]2CN1C(=O)[C@H](C1CCCCC1)NC(=O)O[C@@H]1C[C@H]1CCCCCc1c(nc3ccccc3c1OC1CC3COCC(C1)N3C(=O)OC(C)(C)C)O2)C(=O)NS(=O)(=O)C1(C)CC1 (stereo partly drawn) [Example 287, tert-butyl 7-{[(1aR,5S,8S,10R,22aR)-5-cyclohexyl-8-{[(1R,2S)-2-ethenyl-1-{[(1-methylcyclopropyl)sulfonyl]carbamoyl}cyclopropyl]carbamoyl}-3,6-dioxo-1,1a,3,4,5,6,9,10,18,19,20,21,22,22a-tetradecahydro-8H-7,10-methanocyclopropa[18,19][1,10,3,6]dioxadiazacyclononadecino[11,12-b]quinolin-17-yl]oxy}-3-oxa-9-azabicyclo[3.3.1]nonane-9-carboxylate] | 92 | 2550 | 58000 |
| C=C[C@@H]1C[C@]1(NC(=O)[C@@H]1C[C@@H]2CN1C(=O)[C@H](C1CCCCC1)NC(=O)O[C@@H]1C[C@H]1CCCCCc1c(nc3ccccc3c1OC1CC3COCC(C1)N3)O2)C(=O)NS(=O)(=O)C1(C)CC1 (stereo partly drawn) [Example 288, (1aR,5S,8S,10R,22aR)-5-cyclohexyl-N-[(1R,2S)-2-ethenyl-1-{[(1-methylcyclopropyl)sulfonyl]carbamoyl}cyclopropyl]-17-(3-oxa-9-azabicyclo[3.3.1]non-7-yloxy)-3,6-dioxo-1,1a,3,4,5,6,9,10,18,19,20,21,22,22a-tetradecahydro-8H-7,10-methanocyclopropa[18,19][1,10,3,6]dioxadiazacyclononadecino[11,12-b]quinoline-8-carboxamide] | 18 | 50 | 224 |

Source: US9328138B2 (priority 2011, dated 2016)
